In PubChem BioAssay (NCI):
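Step 1: Grow cells in 96-well plates. Step 2: Expose to compound for 48 hours at 5 concentrations. Step 3: Interpolate endpoints linearly; if unreached, use highest concentration. GI50 is the concentration that inhibits growth by half. TGI denotes the concentration required for complete inhibition of growth.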

Assays:
Experiment in all cases: inhibition of tumour cell growth, NCI panel, 48 h
DLD-1 colon = system: DLD-1 colon
DMS 273 small cell lung = system: DMS 273 small cell lung
MALME-3M melanoma = system: MALME-3M melanoma
OVCAR-3 ovarian = system: OVCAR-3 ovarian
OVCAR-5 ovarian = system: OVCAR-5 ovarian
SNB-75 CNS = system: SNB-75 CNS
SR leukemia = system: SR leukemia
UACC-62 melanoma = system: UACC-62 melanoma
MDA-MB-231 breast = system: MDA-MB-231 breast
PC-3 prostate = system: PC-3 prostate

SMILES	TGI (DLD-1 colon) [µM]	TGI (DMS 273 small cell lung) [µM]	TGI (MALME-3M melanoma) [µM]	TGI (OVCAR-3 ovarian) [µM]	TGI (OVCAR-5 ovarian) [µM]	TGI (SNB-75 CNS) [µM]	TGI (SR leukemia) [µM]	TGI (UACC-62 melanoma) [µM]	GI50 (DLD-1 colon) [µM]	GI50 (DMS 273 small cell lung) [µM]	GI50 (MALME-3M melanoma) [µM]	GI50 (OVCAR-3 ovarian) [µM]	GI50 (OVCAR-5 ovarian) [µM]	GI50 (SNB-75 CNS) [µM]	GI50 (SR leukemia) [µM]	GI50 (UACC-62 melanoma) [µM]	TGI (MDA-MB-231 breast) [µM]	TGI (PC-3 prostate) [µM]
COc1ccccc1/C=C1\CCC(CNc2ccc(Cl)cc2)C1=O (centres undefined)	17.5	20.2	28.4	22.9	23.6	29.9	26.5	3.48	–	–	–	–	–	–	–	–	–	–
CS(=O)(=O)OCCN1CCN(C(=O)c2cccc3c(Nc4ccc(S(N)(=O)=O)cc4)c4ccccc4nc23)CC1	> 65.3	> 100	> 100	> 100	> 100	> 100	> 100	> 100	–	–	–	–	–	–	–	–	–	–
CC(C)COC(=O)N1N=NC2C3OC(CC3=O)C21 (centres undefined)	> 100	> 100	> 100	> 100	> 100	> 100	> 100	> 100	–	–	–	–	–	–	–	–	–	–
Cn1cc(NC(=O)c2cc(NC(=O)Nc3cc(C(=O)Nc4cc(C(=O)NCCC(=N)N)n(C)c4)n(C)c3)cn2C)cc1C(=O)NCCC(=N)N	> 100	29.6	> 100	> 100	> 100	67.2	> 100	53.2	–	–	–	–	–	–	–	–	–	–
CC(=O)O[C@H]1CC[C@@]2(C)C(CC[C@]3(C)C2CC[C@]2(C)Oc4c(C)cc(O)cc4C[C@@H]23)C1(C)C (some centres undefined)	27.1	12.7	22.8	25.7	23.6	8.12	7.12	23.7	–	–	–	–	–	–	–	–	–	–
O=S(=O)([O-])[O-].[Cl-].[NH2-].[NH2-].[NH2-].[NH2-].[Ru+3].c1ccc(-c2cccnc2)cc1	> 100	> 100	> 100	> 100	> 100	> 100	> 100	> 100	> 100	> 100	> 100	> 100	> 100	88.9	> 100	> 100	–	–
CCN(CC)CC(=O)/C=C/c1ccc(C)cc1	59.6	55	41.2	45.1	> 100	55.1	78.8	32.5	–	–	–	–	–	–	–	–	–	–
CCOCC(=O)N[C@H]1CCc2cc(OC)c(OC)c(OC)c2-c2ccc(SC)c(=O)cc21	> 100	> 100	> 100	< 0.0658	> 100	5.11	> 100	> 100	–	–	–	–	–	–	–	–	2.31	> 25.3
C=CCC12CCC(=O)C=C1CCC1(C2)OCCO1 (centres undefined)	> 100	> 100	> 100	> 100	–	> 100	> 100	> 100	–	–	–	–	–	–	–	–	–	–
Cc1ccc(C(=O)O/N=C2/CCCCC2CN(C)C)cc1 (centres undefined)	> 100	> 100	> 100	> 100	> 100	> 100	> 100	> 100	–	–	–	–	–	–	–	–	–	–
